Measured values published in patent US20060194823A1, “Sulfonamido-macrocycles as Tie2 inhibitors and the salts thereof, a pharmaceutical composition comprising these compounds, the method of preparing and the use thereof” (priority 2004, published 2006).

The compounds below were run against T1, Tie-2-Kinase (Homo sapiens, UniProt Q02763) (assay: Tie-2-Kinase HTRF-Assay). Details: either in the Tie2 kinase assay or in the Tie2 autophosphorylation ELISA test; read-out: IC50, inhibit Tie2.
T1 construct: made in house
Assay type: biochemical
Text: Tie-2 phosphorylates tyrosine residues of the artificial substrate polyGAT (biotinylated polyGluAlaTyr). Detection of phosphorylated product is achieved specifically by a trimeric detection complex consisting of the phosphorylated substrate, streptavidin-XLent (SA-XLent) which binds to biotin, and Europium Cryptate-labeled anti-phosphotyrosine antibody PT66 which binds to phosphorylated tyrosine. Excitation of Europium fluorescence with 337 nm light results in emission of long-lived light with 620 nm. In case a trimeric detection complex has formed, part of the energy will be transferred to the SA-XLent fluorophore that itself then emits long-lived light of 665 nm (FRET: fluorescence resonance energy transfer). […] Measurement is performed in a Packard Discovery or BMG Rubystar instrument. A-counts (emission at 665 nm) will be divided by B-counts (emission at 620 nm) and multiplicated with a factor of 10000. The resulting numbers are called the “well ratio” of the sample.
• Enzyme: Tie-2-Kinase, in house, aliquots (12×10 mL) stored at −80° C. • Substrate: PolyGAT labeled with Biotin (1000 μg/mL); ClS Bio; # 61GATBLB; • aliquots stored at −20° C. • ATP: Amersham Pharmacia Biotech Inc. # 27-2056-01; 100 mM; stored at −20° C. • Antibody: PT66-Eu Cryptate; CIS Bio; # 61T66KLB; 30 μg/mL; aliquots stored at −20° C. • SA-XLent; CIS Bio; # 611SAXLB; 1000 μg/mL; aliquots stored at −80° C. • Microplates: 384 Well black, SV, Greiner, # 784076 Solutions: Assay Buffer: • 50 mM HEPES (pH 7.0), 25 mM MgCl2, 5 mM MnCl2, 1 mM DTT, 0.5 mM Na3VO4, 0.01% (v/v) NP40, 1× Complete EDTA free Enzyme Working Solution: • Tie-2 stock solution is diluted 1:250 in assay buffer Substrate Working Solution: • PolyGAT (1000 μg/mL; 36.23 μM) is diluted 1:90.6 to 400 nM or 77.3 ng/well, ATP (100 mM) is diluted 1:5000 to 20.0 μM. Both dilutions in assay buffer. Final assay concentrations: poly-GAT: 200 nM or 5.25 μg/mL, ATP: 10 μM (1×Km each). • Detection solution: 50 mM HEPES (pH 7.0), BSA 0.2%, 0.6 M KF, 200 mM EDTA, PT66-Europium Cryptate 2.5 ng/well, SA-XLent Cis Bio 90 ng/well. Assay Steps All Steps at 20° C. • 1. 0.75 μL of compound solution in 30% (v/v) DMSO • 2. add 7 μL of substrate working solution • 3. add 7 μL of enzyme working solution • 4. incubate 75 min (reaction volume: 14.75 μL) • 5. add 8 μL of detection solution • 6. incubate 180 min or over night at 4° C. (total volume: 22.75 μL) • 7. measure HTRF in Packard Discovery or BMG Rubystar instrument (delay 50 μs, integrated time 400 μs) Final Concentrations (in 14.75 μL Reaction Volume): • Enzyme: unknown • polyGAT (1×Km): 200 nM (77.3 ng) • ATP (1×Km): 10 μM • DMSO: 1.5% (v/v) • Buffer conditions: 50 mM HEPES (pH 7.0), 25 mM MgCl2, 5 mM MnCl2, 1 mM DTT, 0.5 mM NaVO4, 0.01% (v/v) NP40, 1× Complete Controls: • C0: uninhibited reaction (DMSO only) • Ci: inhibited reaction with 20 μM Staurosporine Biological Experiment 3: Proliferation Test

T1 sequence (Q02763 23-1124): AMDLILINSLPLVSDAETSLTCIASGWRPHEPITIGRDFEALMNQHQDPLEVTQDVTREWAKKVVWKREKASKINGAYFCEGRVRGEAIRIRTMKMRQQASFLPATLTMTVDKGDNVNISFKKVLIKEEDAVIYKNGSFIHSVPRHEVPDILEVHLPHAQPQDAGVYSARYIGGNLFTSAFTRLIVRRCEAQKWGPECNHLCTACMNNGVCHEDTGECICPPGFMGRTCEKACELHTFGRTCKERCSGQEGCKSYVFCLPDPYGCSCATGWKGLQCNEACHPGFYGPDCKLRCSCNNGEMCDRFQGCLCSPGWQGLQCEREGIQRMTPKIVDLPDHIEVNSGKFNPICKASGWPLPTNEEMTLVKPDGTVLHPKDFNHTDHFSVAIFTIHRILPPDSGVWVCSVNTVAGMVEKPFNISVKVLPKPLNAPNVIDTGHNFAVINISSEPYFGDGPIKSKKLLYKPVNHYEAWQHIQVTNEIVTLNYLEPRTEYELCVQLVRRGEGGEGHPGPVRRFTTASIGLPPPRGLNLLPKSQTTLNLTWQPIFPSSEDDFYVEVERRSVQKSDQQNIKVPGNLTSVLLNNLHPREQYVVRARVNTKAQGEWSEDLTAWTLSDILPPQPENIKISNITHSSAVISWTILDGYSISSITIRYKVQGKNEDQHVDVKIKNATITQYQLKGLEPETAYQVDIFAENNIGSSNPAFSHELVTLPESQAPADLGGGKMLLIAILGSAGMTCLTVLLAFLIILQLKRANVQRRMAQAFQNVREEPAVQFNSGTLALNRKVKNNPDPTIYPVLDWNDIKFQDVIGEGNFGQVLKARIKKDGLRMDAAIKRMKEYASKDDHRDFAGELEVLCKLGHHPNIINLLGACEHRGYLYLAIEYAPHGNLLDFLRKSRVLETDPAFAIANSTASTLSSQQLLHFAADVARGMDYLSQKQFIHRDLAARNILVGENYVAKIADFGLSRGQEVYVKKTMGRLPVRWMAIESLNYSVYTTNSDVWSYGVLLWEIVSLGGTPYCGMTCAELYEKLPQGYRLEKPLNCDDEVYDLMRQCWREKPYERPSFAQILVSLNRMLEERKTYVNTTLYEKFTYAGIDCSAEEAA

IC50, ≤ 1000 nM:
O=S1(=O)NCCCNc2nc(ncc2-c2ccc3c(c2)OCO3)Nc2cccc1c2 [Example 1, 1^5-(1,3-benzodioxol-5-yl)-4-thia-2,5,9-triaza-1(2,4) pyrimidina-3(1,3)-benzenacyclonona-phane 4,4-dioxide]
O=C(COc1ccc(-c2cnc3nc2NCCCNS(=O)(=O)c2cccc(c2)N3)cc1)c1ccc(F)cc1 [Example 2, 2-[4-[4,4-dioxo-4λ^6-thia-2,5,9-triaza-1(2,4)-pyrimidina-3(1,3)-benzenacyclo-nonaphan-1^5-yl]phenoxy]-1-(4-fluorophenyl)-ethanone]
O=C(COc1ccc(-c2cnc3nc2NCCCNS(=O)(=O)c2cccc(c2)N3)cc1)c1ccccc1 [Example 3, 2-[4-[4,4-dioxo-4λ^6-thia-2,5,9-triaza-1(2,4)-pyrimidina-3(1,3)-benzenacyclo-nonaphan-1^5-yl]phenoxy]-1-phenylethanone]
O=C(Nc1ccccc1)Nc1ccc(-c2cnc3nc2NCCCNS(=O)(=O)c2cccc(c2)N3)cc1 [Example 8, N-[4-[4,4-dioxo-4λ^6-thia-2,5,9-triaza-1(2,4)-pyrimidina-3(1,3)-benzena-cyclononaphan-1^5-yl]phenyl]-N′-phenylurea]
O=C(Nc1ccc(-c2cnc3nc2NCCCNS(=O)(=O)c2cccc(c2)N3)cc1)Nc1cccc(C(F)(F)F)c1 [Example 9, N-[4-[4,4-dioxo-4λ^6-thia-2,5,9-triaza-1(2,4)-pyrimidina-3(1,3)-benzena-cyclononaphan-1^5-yl]phenyl]-N′-[3-(trifluoromethyl)-phenyl]urea]
O=C(Nc1ccc(-c2cnc3nc2NCCCNS(=O)(=O)c2cccc(c2)N3)cc1)Nc1cc(C(F)(F)F)ccc1F [Example 10, N-[4-[4,4-dioxo-4λ^6-thia-2,5,6-triaza-1(2,4)-pyrimidina-3(1,3)-benzena-cyclononaphan-1^5-yl]phenyl]-N′-[2-fluoro-5-(trifluoromethyl)-phenyl]urea]
COc1ccc(S(=O)(=O)Nc2ccc(-c3cnc4nc3NCCCNS(=O)(=O)c3cccc(c3)N4)cc2)cc1 [Example 23, N-[4-[4,4-dioxo-4λ^6-thia-2,5,9-triaza-1(2,4)-pyrimidina-3(1,3)-benzena-cyclononaphan-1^5-yl]phenyl]-4-methoxybenzene-sulfonamide]
